Measured values from ChEMBL document CHEMBL1145338, “Novel 2-aminopyrimidine carbamates as potent and orally active inhibitors of Lck: synthesis, SAR, and in vivo antiinflammatory activity” (J Med Chem, 2006).
pIC50: −log10 of the molar value.

Assays:
[1] = biological target: Vascular endothelial growth factor receptor 2 (Homo sapiens, UniProt P35968)
[2] = biological target: Mitogen-activated protein kinase 14 (Homo sapiens, UniProt Q16539); assay: Inhibition of p38alpha
[3] = biological target: Tyrosine-protein kinase Lck (Homo sapiens, UniProt P06239)
Description: Inhibition of Lck in presence of 0.5 uM ATP by HTRF kinase assay

[4] = biological target: Proto-oncogene tyrosine-protein kinase Src (Homo sapiens, UniProt P12931); assay: Inhibition of Src
T-cell [5] = assay: Inhibition of anti-CD3/CD28-induced IL2 secretion in human T cells; format: functional, cell-based
T-cell [6] = assay: Inhibition of human T cell proliferation by mixed lymphocyte reaction; format: functional, cell-based
[7] = Protein binding in rat plasma; format: ADME, cell-free; settings: read-out: PPB (converted)
[8] = Bioavailability in Sprague-Dawley rat at 5 mg/kg, po; format: ADME, organism-based; settings: in vivo
Mus musculus [9] = assay: Inhibition of anti-CD3-induced IL2 production in BALB/c mouse at 10 mg/kg, po; format: functional
[10] = Clearance in Sprague-Dawley rat at 1 mg/kg, iv; format: ADME, organism-based; parameters: dose 1 mg/kg, route intravenous; settings: in vivo
[11] = Protein binding in human plasma; format: ADME, cell-free; settings: read-out: PPB (converted)
[12] = biological target: Insulin-like growth factor 1 receptor (Homo sapiens, UniProt P08069)
[13] = biological target: Protein kinase C theta type (Homo sapiens, UniProt Q04759); assay: Inhibition of PKCtheta
[14] = biological target: Tyrosine-protein kinase SYK (Homo sapiens, UniProt P43405); assay: Inhibition of Syk
Mus musculus [15] = assay: Inhibition of anti-CD3-induced IL2 production in BALB/c mouse at 100 mg/kg, po; format: functional
[16] = Cmax in Sprague-Dawley rat at 5 mg/kg, po; format: ADME, organism-based; parameters: dose 5 mg/kg, route oral; settings: in vivo
[17] = Tmax in Sprague-Dawley rat at 5 mg/kg, po; format: ADME, organism-based; parameters: dose 5 mg/kg, route oral; settings: in vivo
[18] = Half life in Sprague-Dawley rat at 1 mg/kg, iv; format: ADME, organism-based; parameters: dose 1 mg/kg, route intravenous; settings: in vivo
[19] = biological target: T1, Tyrosine-protein kinase JAK3 (Homo sapiens, UniProt P52333)
T1 sequence (P52333 whole entry): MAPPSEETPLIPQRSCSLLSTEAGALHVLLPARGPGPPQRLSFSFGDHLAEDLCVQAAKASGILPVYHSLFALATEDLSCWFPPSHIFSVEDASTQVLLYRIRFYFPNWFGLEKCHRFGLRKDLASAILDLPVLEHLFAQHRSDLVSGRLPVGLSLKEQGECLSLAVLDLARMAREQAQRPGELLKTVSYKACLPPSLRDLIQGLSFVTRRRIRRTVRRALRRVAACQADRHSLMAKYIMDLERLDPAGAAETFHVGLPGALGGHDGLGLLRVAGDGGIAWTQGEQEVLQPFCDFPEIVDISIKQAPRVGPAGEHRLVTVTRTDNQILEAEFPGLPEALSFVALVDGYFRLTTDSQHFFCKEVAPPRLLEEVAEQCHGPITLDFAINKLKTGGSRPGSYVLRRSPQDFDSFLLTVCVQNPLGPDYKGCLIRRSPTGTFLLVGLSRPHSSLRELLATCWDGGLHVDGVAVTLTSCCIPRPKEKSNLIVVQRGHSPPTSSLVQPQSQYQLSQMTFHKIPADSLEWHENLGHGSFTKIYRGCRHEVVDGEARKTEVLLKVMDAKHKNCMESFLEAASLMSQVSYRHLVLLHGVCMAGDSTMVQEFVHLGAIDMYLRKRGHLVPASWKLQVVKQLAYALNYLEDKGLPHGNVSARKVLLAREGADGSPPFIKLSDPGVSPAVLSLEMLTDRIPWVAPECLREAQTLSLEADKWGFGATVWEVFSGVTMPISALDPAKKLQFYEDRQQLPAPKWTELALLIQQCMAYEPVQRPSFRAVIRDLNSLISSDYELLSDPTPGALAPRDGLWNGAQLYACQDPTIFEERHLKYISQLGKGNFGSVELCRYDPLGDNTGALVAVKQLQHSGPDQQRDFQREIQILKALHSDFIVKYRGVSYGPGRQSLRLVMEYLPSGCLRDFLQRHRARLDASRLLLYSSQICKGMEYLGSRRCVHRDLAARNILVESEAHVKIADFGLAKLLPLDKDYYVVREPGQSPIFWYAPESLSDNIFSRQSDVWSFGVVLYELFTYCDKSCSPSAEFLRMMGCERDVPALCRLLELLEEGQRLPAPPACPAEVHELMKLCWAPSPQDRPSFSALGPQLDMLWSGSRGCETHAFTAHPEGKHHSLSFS

[20] = AUC (0-infinity) in Sprague-Dawley rat at 5 mg/kg, po; format: ADME, organism-based; parameters: time infinity, dose 5 mg/kg, route oral; settings: plasma
[21] = AUC (0-infinity) in Sprague-Dawley rat at 1 mg/kg, iv; format: ADME, organism-based; parameters: time infinity, dose 1 mg/kg, route intravenous; settings: plasma
T-cell [22] = assay: Inhibition of anti-CD3/CD28-induced T cell proliferation; format: functional, cell-based; settings: Homo sapiens
[23] = biological target: Cyclin-dependent kinase 2 (Homo sapiens, UniProt P24941); assay: Inhibition of CDK2
T-cell [24] = assay: Inhibition of T cell receptor zeta chain phosphorylation; format: functional, cell-based; settings: Homo sapiens
[25] = biological target: Tyrosine-protein kinase JAK2 (Homo sapiens, UniProt O60674)
[26] = Volume of distribution in Sprague-Dawley rat at 1 mg/kg, iv; format: ADME, organism-based; parameters: dose 1 mg/kg, route intravenous; settings: in vivo, read-out: Vss
Homo sapiens = species on record: Homo sapiens; assay: Inhibition of anti-CD3/CD28-induced IL2 secretion in human whole blood T cell; format: functional
Jurkat = assay: Antiproliferative activity against Jurkat cells; format: functional, cell-based; settings: Homo sapiens
T-cell [27] = assay: Inhibition of anti-CD3/CD28-induced IL2 secretion in T cells stimulated with phorbol myristic acid and calcium ionophore; format: functional, cell-based; settings: Homo sapiens
[28] = biological target: Tyrosine-protein kinase BTK (Homo sapiens, UniProt Q06187)
Mus musculus [29] = assay: Inhibition of anti-CD3-induced IL2 production in BALB/c mouse at 30 mg/kg, po; format: functional
[30] = biological target: Mitogen-activated protein kinase 10 (Homo sapiens, UniProt P53779)
Chain of Mitogen-activated protein kinase 10 (P53779 whole entry): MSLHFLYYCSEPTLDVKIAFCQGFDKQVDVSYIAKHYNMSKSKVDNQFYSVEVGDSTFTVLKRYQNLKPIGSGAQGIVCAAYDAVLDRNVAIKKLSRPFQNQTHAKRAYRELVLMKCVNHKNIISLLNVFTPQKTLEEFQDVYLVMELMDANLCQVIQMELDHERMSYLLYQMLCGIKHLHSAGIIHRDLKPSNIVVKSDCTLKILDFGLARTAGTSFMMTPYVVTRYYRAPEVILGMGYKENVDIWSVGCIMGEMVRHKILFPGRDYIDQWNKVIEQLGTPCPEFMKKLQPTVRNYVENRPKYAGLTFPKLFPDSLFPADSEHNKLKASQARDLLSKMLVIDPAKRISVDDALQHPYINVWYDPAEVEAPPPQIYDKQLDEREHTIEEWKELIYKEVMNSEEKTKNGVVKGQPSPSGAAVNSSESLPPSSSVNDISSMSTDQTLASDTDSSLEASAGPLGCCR

Chain of Vascular endothelial growth factor receptor 2 (P35968 whole entry): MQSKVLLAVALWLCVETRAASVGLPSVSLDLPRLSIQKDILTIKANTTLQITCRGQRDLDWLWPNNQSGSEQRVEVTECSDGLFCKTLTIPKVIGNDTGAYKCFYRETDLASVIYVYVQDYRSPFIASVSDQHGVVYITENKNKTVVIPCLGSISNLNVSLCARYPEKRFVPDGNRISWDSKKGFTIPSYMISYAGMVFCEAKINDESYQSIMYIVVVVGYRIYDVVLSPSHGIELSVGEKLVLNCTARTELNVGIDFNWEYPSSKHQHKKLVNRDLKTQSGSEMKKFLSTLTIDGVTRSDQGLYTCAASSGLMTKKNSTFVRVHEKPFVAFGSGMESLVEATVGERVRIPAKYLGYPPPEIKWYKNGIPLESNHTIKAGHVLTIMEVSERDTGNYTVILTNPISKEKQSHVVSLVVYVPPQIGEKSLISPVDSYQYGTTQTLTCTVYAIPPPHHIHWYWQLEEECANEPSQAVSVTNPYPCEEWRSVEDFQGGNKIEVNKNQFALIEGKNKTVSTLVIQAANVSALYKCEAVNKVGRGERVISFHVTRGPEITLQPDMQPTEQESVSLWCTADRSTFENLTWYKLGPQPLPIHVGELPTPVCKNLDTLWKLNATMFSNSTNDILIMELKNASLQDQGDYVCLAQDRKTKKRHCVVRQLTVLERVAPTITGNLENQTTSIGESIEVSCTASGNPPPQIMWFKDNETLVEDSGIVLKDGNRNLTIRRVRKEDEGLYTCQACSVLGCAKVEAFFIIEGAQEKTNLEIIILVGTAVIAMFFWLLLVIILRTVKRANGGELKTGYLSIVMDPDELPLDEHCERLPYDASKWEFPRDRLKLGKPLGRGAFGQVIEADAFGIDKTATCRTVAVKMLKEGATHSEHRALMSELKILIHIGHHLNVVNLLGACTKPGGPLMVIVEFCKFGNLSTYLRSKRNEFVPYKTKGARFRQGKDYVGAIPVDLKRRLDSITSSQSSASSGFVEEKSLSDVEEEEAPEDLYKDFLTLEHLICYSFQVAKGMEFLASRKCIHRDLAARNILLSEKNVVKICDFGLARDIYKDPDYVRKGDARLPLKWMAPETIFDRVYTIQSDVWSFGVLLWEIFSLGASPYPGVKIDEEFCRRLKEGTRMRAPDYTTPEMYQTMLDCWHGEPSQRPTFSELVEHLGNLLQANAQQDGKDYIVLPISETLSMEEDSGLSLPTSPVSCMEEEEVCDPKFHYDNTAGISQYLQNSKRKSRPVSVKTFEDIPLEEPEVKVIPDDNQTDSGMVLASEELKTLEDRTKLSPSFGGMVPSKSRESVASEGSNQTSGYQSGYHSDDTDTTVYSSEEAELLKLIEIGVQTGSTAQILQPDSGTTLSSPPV
Chain of Tyrosine-protein kinase Lck (P06239 whole entry): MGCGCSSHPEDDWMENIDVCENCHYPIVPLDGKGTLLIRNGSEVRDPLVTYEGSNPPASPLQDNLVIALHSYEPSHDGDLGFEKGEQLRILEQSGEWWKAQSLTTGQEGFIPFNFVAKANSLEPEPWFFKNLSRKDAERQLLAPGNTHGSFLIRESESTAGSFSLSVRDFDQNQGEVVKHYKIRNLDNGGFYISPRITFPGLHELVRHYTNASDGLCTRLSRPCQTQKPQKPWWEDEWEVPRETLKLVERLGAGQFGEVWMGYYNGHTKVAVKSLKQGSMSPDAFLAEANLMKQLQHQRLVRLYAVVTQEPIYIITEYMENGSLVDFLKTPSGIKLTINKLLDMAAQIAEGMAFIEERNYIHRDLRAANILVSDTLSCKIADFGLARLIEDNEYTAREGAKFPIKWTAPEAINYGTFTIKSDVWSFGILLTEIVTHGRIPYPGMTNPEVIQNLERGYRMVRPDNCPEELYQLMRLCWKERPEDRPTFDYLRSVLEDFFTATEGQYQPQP
Chain of Mitogen-activated protein kinase 14 (Q16539 whole entry): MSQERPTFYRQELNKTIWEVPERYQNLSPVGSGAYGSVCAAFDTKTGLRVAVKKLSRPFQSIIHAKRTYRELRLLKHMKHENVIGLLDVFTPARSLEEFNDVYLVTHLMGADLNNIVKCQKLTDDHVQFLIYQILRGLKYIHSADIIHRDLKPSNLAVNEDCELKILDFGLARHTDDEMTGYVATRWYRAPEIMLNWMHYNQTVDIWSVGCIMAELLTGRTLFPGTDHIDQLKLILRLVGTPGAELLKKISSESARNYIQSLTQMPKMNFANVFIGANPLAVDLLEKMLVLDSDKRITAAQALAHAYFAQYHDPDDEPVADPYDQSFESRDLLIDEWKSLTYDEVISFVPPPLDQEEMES
Chain of Proto-oncogene tyrosine-protein kinase Src (P12931 2-536 limits assumed): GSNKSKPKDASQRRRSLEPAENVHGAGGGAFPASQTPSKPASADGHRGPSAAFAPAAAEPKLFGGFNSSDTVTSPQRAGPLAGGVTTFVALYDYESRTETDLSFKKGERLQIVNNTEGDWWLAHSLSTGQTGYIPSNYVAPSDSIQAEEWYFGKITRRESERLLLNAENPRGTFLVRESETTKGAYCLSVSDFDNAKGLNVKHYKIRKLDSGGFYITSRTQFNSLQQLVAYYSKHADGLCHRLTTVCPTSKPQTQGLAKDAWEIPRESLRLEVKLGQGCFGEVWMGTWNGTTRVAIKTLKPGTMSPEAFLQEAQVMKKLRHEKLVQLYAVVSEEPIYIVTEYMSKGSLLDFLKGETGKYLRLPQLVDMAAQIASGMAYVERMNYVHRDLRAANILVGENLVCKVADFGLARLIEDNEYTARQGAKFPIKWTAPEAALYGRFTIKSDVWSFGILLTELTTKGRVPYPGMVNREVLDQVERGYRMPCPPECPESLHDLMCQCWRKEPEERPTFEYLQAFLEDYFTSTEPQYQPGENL
Chain of Protein kinase C theta type (Q04759 whole entry): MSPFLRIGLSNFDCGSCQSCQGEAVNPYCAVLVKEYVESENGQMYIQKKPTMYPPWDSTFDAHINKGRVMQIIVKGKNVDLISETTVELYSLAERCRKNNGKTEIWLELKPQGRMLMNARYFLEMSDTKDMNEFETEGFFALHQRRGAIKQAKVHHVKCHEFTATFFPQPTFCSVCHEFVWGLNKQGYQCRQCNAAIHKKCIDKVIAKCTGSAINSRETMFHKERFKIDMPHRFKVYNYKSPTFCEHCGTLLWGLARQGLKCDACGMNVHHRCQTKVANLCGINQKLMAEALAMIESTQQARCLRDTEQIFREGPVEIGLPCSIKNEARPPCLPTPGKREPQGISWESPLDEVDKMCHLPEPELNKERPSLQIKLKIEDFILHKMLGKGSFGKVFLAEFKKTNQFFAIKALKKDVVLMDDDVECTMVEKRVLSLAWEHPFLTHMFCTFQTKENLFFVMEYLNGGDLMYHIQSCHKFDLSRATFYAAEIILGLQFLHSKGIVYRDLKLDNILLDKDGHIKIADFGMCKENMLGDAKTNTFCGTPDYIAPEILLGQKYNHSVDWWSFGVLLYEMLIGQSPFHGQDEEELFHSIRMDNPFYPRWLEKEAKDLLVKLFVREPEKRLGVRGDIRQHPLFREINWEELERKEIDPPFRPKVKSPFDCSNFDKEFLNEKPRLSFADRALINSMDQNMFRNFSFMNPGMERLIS
Chain of Tyrosine-protein kinase BTK (Q06187 whole entry): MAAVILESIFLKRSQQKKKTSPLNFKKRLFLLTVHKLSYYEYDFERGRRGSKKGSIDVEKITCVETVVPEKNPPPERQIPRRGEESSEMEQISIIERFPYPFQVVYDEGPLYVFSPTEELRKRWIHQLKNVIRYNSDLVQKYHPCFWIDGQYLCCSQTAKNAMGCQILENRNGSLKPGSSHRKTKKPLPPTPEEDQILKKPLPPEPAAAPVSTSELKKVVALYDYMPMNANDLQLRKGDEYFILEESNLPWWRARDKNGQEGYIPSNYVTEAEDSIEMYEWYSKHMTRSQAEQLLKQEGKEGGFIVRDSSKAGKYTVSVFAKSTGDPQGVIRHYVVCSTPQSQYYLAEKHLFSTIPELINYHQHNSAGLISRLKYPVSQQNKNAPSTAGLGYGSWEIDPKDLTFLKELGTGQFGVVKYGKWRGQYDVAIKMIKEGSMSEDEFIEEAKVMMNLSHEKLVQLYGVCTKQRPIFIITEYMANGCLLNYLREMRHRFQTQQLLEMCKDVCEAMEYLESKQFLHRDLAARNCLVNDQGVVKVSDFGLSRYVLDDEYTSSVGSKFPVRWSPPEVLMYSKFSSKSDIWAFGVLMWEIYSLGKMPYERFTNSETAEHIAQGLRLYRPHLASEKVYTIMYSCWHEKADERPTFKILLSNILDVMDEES

Cc1cccc(C)c1OC(=O)N(c1ccc(-c2ccccc2)cc1)c1ccnc(Nc2ccc(N3CCN(C)CC3)cc2)n1 gave a pIC50 [1] of 6.23, a pIC50 [2] of 5.74 and a pIC50 [3] of 7.89. The pIC50 [4] was 7.01.
With COc1ccccc1N(C(=O)Oc1c(C)cccc1C)c1ccnc(Nc2ccc(N3CCN(C)CC3)cc2)n1 the pIC50 [1] was 6.72, the pIC50 [2] was 6.38 and the pIC50 [3] was 9.00. For the same compound, the pIC50 [4] was 8.40.
COc1ccc(N(C(=O)Oc2c(C)cccc2C)c2ccnc(Nc3ccc(N4CCN(C)CC4)c(F)c3)n2)c(OC)c1 showed a pIC50 [1] of 6.59, a pIC50 [2] of 6.00 and a pIC50 (T-cell [5]) of 6.70. It also gave a pIC50 [3] of 9.00 and a pIC50 [4] of 8.70.
For COc1ccc(N(C(=O)Oc2c(C)cccc2C)c2ccnc(Nc3cc(OC)c(OCCN4CCN(C)CC4)c(OC)c3)n2)c(OC)c1, the pIC50 [1] was 6.64, the pIC50 [2] was 6.74 and the pIC50 (T-cell [5]) was 6.54. The pIC50 [3] was 9.00 and the pIC50 [4] was 9.00.
COc1ccc(N(C(=O)Oc2c(C)cccc2C)c2ccnc(Nc3ccc(OCCN(C)C)cc3)n2)c(OC)c1 gave a pIC50 [1] of 6.66, a pIC50 [2] of 5.68 and a pIC50 (T-cell [5]) of 6.57. The pIC50 [3] was 9.00 and the pIC50 [4] was 8.40.
Work on COc1ccc(N(C(=O)Oc2c(C)cccc2C)c2ccnc(Nc3ccc(N4CCN(C)CC4)cc3)n2)c(OC)c1 yielded a pIC50 [1] of 6.19, a pIC50 [2] of 5.89 and a pIC50 (T-cell [5]) of 5.72. It also gave a pIC50 [3] of 8.70 and a pIC50 [4] of 8.22.
COc1ccc(N(C(=O)Oc2c(C)cccc2C)c2ccnc(Nc3ccc(OCCCN(C)C)cc3)n2)c(OC)c1 gave a pIC50 [1] of 6.64, a pIC50 [2] of 5.68 and a pIC50 (T-cell [5]) of 6.64. The pIC50 [3] was 9.00 and the pIC50 [4] was 8.40.
Work on COc1ccc(N(C(=O)Oc2c(C)cccc2C)c2ccnc(Nc3ccc(OCCCN4CCN(C)CC4)c(F)c3)n2)c(OC)c1 yielded a pIC50 [1] of 6.23, a pIC50 [2] of 5.89 and a pIC50 (T-cell [5]) of 6.29. The pIC50 [3] was 9.00 and the pIC50 [4] was 8.30.
Compound COc1ccc(N(C(=O)Oc2c(C)cccc2C)c2ccnc(Nc3ccc(OCCCN4CCCCC4)c(F)c3)n2)c(OC)c1 has a pIC50 [1] of 6.21, a pIC50 [2] of 5.17 and a pIC50 (T-cell [5]) of 6.07. The pIC50 [3] was 8.70 and the pIC50 [4] was 7.92.
With Cc1cccc(C)c1OC(=O)N(c1cccc(-c2ccccc2)c1)c1ccnc(Nc2ccc(N3CCN(C)CC3)cc2)n1 the pIC50 [1] was 5.72, the pIC50 [2] was 5.10 and the pIC50 [3] was 7.31. The pIC50 [4] was 6.30.
COc1ccc(N(C(=O)Oc2c(C)cccc2C)c2ccnc(Nc3ccc(N4CCN(C)CC4)c(OC)c3)n2)c(OC)c1 gave a pIC50 [1] of 6.85, a pIC50 [2] of 6.36 and a pIC50 (T-cell [5]) of 6.85. The pIC50 [3] was 9.00 and the pIC50 [4] was 8.70.
For COc1ccc(N(C(=O)Oc2c(C)cccc2C)c2ccnc(Nc3ccc(N4CCN(C)CC4)cc3)n2)cc1, the pIC50 [1] was 6.38, the pIC50 [2] was 6.49 and the pIC50 [3] was 7.92. It also gave a pIC50 [4] of 8.52.
Work on Cc1cccc(C)c1OC(=O)N(c1ccnc(Nc2ccc(N3CCN(C)CC3)cc2)n1)c1ccc(F)cc1OC(C)C yielded a pIC50 [1] of 5.32, a pIC50 [2] of 5.92 and a pIC50 [3] of 9.00. It also gave a pIC50 [4] of 7.89.
Compound COc1ccc(N(C(=O)Oc2c(C)cccc2C)c2ccnc(Nc3cc(OC)c(OCCN4CCOCC4)c(OC)c3)n2)c(OC)c1 has a pIC50 [1] of 6.77, a pIC50 [2] of 5.92 and a pIC50 (T-cell [5]) of 6.39. It also gave a pIC50 [3] of 9.00 and a pIC50 [4] of 8.70.
With Cc1cccc(C)c1OC(=O)N(c1ccc2ccccc2c1)c1ccnc(Nc2ccc(N3CCN(C)CC3)cc2)n1 the pIC50 [1] was 6.89, the pIC50 [2] was 6.13 and the pIC50 [3] was 8.00. The pIC50 [4] was 7.85.
In the case of COc1ccc(N(C(=O)Oc2c(C)cccc2C)c2ccnc(Nc3ccc(OCCCN4CCN(C)CC4)c(OC)c3)n2)c(OC)c1, the pIC50 [1] was 6.68, the pIC50 [2] was 5.64 and the pIC50 (T-cell [5]) was 7.00. It also gave a pIC50 [3] of 9.00 and a pIC50 [4] of 8.70.
Compound COc1ccc(N(C(=O)Oc2c(C)cccc2C)c2ccnc(Nc3cc(OC)c(N4CCN(C)CC4)c(OC)c3)n2)c(OC)c1 has a pIC50 [1] of 6.77, a pIC50 [2] of 6.37 and a pIC50 (T-cell [6]) of 6.23. For the same compound, the pIC50 [3] was 9.00 and the pIC50 [4] was 9.00.
COc1ccc(N(C(=O)Oc2c(C)cccc2C)c2ccnc(Nc3cc(OC)c(OCCCN4CCN(C)CC4)c(OC)c3)n2)c(OC)c1 gave a fraction unbound [7] of 0.016, a bioavailability [8] of 6% and an inhibition in vivo at 10 mg/kg (Mus musculus [9]) of 11%. For the same compound, the clearance [10] was 30.5 mL/min/kg, the fraction unbound [11] was 0.013 and the pIC50 [12] was less than 4.60. For the same compound, the pIC50 [2] was 6.28, the pIC50 [13] was less than 5.30 and the pIC50 [14] was 6.70. It also gave an inhibition in vivo at 100 mg/kg (Mus musculus [15]) of 60%, a Cmax [16] of 22 ng/mL and a Tmax [17] of 4 h. It also gave a half-life [18] of 4.6 h, a pIC50 [19] of 5.92 and an AUC(0-inf) [20] of 175 ng·h/mL. The AUC(0-inf) [21] was 568 ng·h/mL, the pIC50 (T-cell [22]) was 6.31 and the pIC50 [23] was less than 4.40. It also gave a pIC50 (T-cell [24]) of 6.11, a pIC50 [25] of 6.62 and a pIC50 (T-cell [5]) of 7.21. For the same compound, the Vd [26] was 11.3 L/kg, the pIC50 (Homo sapiens) was 5.52 and the pIC50 (Jurkat) was 5.77. It also gave a pIC50 (T-cell [27]) of 5.74, a pIC50 [28] of 7.00 and a pIC50 [4] of 9.00. For the same compound, the inhibition in vivo at 30 mg/kg (Mus musculus [29]) was 21% and the pIC50 [30] was less than 5.30.
Compound Cc1cccc(C)c1OC(=O)N(c1ccccc1)c1ccnc(Nc2ccc(N3CCN(C)CC3)cc2)n1 has a pIC50 [1] of 6.72, a pIC50 [2] of 6.80 and a pIC50 [3] of 7.85. The pIC50 [4] was 8.00.
